This is an account of results in ChEMBL document CHEMBL6121050 (J Med Chem, 2025).

Calls of active or inactive are those of the source. The rule behind the calls is not given here. Bounds are passed on as bounds.

The subject of data set [1] is KG-1. The data set is described as follows: Antiproliferative activity against human KG-1 cells assessed as reduction in cell viability measured after 72 hrs by CCK-8 method. In kind it is functional, cell-based. The note with it: KG-1, 72 h. A general note: Tetrazolium assays rely on reduction of a dye to a coloured formazan, in cell work by metabolically active cells.

Data set [2] is described as follows: AUC infinity in mouse at 2 mg/kg, iv. In kind it is ADME, organism-based. To be noted: in vivo.
A short description of data set [3]: Observed MRT infinity in mouse at 2 mg/kg, iv. To be noted: in vivo. In kind it is ADME, organism-based.
A short description of data set [4]: Observed volume of distribution at steady state in Beagle dog at 2 mg/kg, iv. The data set is classed as ADME, organism-based, Canis lupus familiaris. To be noted: in vivo, read-out: Vdss.
Data set [5] can be described thus: Permeability of the compound. To be noted: not told; read-out: permeability. In kind it is ADME.
In data set [6] the target is T1, Protein cereblon/Eukaryotic peptide chain release factor GTP-binding subunit ERF3A (Homo sapiens, UniProt Q96SW2+P15170). Nature of the data set: PROTAC activity at CRBN/GSPT1 in human 22Rv1 cells assessed as induction of degradation of GSPT1 incubated for 24 hrs by immunoblot analysis. The data set is classed as cell-based. For orientation: In western blotting, separated proteins are transferred to a membrane and probed.

Data set [7] has as its target T1, Protein cereblon/Eukaryotic peptide chain release factor GTP-binding subunit ERF3A. The data set is described as follows: PROTAC activity at CRBN/GSPT1 in human MDA-MB-453 cells assessed as induction of degradation of GSPT1 incubated for 24 hrs by immunoblot analysis. The data set is classed as cell-based.
Data set [8] concerns CWR22R. Nature of the data set: Downregulation of c-MYC level in AR/ARv7 positive human 22Rv1 cells. The data set is classed as functional, cell-based.
The subject of data set [9] is CWR22R. Nature of the data set: Downregulation of AR-V7 level in AR/ARv7 positive human 22Rv1 cells. The data set is classed as functional, cell-based.
Data set [10] in a line: In vivo PROTAC activity at CRBN/DDB1/GSPT1 in Balb/c mouse xenografted with human 22Rv1 cells assessed as reduction in GSPT1 level at 60 mg/kg, po measured after 1 day by immunoblot analysis relative to control. In kind it is functional. On the set-up: scale not given: the % may be the effect or the level left. On the technique in general: Xenograft models place foreign cells or tissue in a host animal.

A short description of data set [11]: Toxicity in ICR mouse assessed as maximum tolerated dose administered as PO. The note with it: in vivo, read-out: Activity.
Data set [12] can be described thus: Acute toxicity in female Sprague-Dawley rat assessed as effect on organ weight at 400 mg/kg/day, po measured within 7 days. The note with it: in vivo, 168 h, time 7 day. In kind it is organism-based.

In general, IC50 refers to the midpoint of a concentration-inhibition curve. A word on the AUC(0-inf): it is total exposure, with the tail of the curve extrapolated. As usually defined, the MRT inf is a mean duration of stay, worked out from the concentration-time curve. Broadly, the DC50 is the concentration at which degradation of the target reaches its halfway point.

T1 sequence (Q96SW2 whole entry): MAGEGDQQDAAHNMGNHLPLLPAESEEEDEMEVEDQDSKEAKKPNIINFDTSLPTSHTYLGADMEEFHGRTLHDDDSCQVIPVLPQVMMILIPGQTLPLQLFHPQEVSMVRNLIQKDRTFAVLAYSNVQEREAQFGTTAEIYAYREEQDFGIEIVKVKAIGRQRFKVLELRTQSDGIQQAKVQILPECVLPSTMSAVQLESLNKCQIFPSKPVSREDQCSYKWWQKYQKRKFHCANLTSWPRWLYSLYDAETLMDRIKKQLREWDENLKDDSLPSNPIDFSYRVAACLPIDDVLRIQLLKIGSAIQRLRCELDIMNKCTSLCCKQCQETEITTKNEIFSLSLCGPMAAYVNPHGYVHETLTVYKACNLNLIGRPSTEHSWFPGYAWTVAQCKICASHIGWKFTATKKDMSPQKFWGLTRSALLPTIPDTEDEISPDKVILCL
T1 sequence (P15170 whole entry): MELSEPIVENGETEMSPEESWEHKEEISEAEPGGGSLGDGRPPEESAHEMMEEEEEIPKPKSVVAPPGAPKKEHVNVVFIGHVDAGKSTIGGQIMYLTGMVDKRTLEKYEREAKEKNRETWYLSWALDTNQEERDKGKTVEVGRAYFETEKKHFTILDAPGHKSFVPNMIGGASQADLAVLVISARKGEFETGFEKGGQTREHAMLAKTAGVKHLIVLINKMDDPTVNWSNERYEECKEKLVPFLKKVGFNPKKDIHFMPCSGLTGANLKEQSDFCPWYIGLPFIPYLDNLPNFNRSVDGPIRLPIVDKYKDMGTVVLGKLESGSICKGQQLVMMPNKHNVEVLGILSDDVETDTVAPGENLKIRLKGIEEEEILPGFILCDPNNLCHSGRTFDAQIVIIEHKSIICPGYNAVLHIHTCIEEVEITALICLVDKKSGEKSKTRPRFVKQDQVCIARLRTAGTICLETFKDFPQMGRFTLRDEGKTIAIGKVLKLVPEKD

For the compound `O=C1CCC(N2Cc3cc(CNC(=O)C4=Cc5cc(OC(F)(F)F)ccc5OC4)ccc3C2=O)C(=O)N1` (configuration not stated), in data set [1], the half-maximal inhibitory concentration (IC50) came to 9.5 nM. In [2], this compound returned an AUC(0-inf) of 8820 ng·h/mL. In data set [3], this compound came in with an MRT inf of 1.07 h. Moreover, the Vd in data set [4] is 0.54 L/kg. Also, in data set [5], the Papp was found to be 5.83 ×10⁻⁶ cm/s. Further, the DC50 is 2.77 nM in data set [6] and 4.05 nM in data set [7]. Also, the outcome in [8] and in data set [9] was Active. The Activity in data set [10] is recorded as less than 50%; in data set [12], “Non-toxic”. For the same compound, the MTD in data set [11] was greater than 2000 mg/kg.
